Source: BindingDB's records for doi:10.1021/jm401604x (University of Auckland, 2014)

Test: Inhibition of recombinant perforin (unknown origin)-mediated lysis of human [51Cr]-labelled Jurkat cells assessed as release of [51Cr] preincubated for 30 mins followed by addition of cells measured after 4 hrs by gamma counting analysis

IC50, > 20 µM:
O=C1NC(=S)N/C1=C/c1ccc(-c2ccccc2Cl)s1, CN1CCN(CCCN2Cc3cc(-c4ccc(/C=C5/NC(=S)NC5=O)s4)ccc3C2=O)CC1, O=C1NC(=S)N/C1=C/c1ccc(-c2ccccc2)s1, CN(C)CCCN1Cc2cc(-c3ccc(/C=C4/NC(=S)NC4=O)s3)ccc2C1=O, O=C1NC(=S)N/C1=C/c1ccc(-c2ccc(C(=O)N3CCOCC3)cc2)s1, O=C1NC(=S)N/C1=C/c1ccc(-c2ccc(C(=O)NCCN3CCOCC3)cc2)s1
